The values that follow come from PMC6692548, “Characterization of a phospholipid‐regulated β‐galactosidase from Akkermansia muciniphila involved in mucin degradation” (MicrobiologyOpen, 2019).

In one data set the target is T1, Amuc_1686_short (Akkermansia muciniphila, UniProt B2UM60).
T1 construct: gene Amuc_1686; signal peptide removed, last 107 amino acids (C-terminal discoidin domain) deleted; N-terminal Strep-tag (pASK-IBA5), E. coli BL21(DE3); primers start at codons AAPMPF and end in DNGPH-stop
T1 sequence (B2UM60 18-673): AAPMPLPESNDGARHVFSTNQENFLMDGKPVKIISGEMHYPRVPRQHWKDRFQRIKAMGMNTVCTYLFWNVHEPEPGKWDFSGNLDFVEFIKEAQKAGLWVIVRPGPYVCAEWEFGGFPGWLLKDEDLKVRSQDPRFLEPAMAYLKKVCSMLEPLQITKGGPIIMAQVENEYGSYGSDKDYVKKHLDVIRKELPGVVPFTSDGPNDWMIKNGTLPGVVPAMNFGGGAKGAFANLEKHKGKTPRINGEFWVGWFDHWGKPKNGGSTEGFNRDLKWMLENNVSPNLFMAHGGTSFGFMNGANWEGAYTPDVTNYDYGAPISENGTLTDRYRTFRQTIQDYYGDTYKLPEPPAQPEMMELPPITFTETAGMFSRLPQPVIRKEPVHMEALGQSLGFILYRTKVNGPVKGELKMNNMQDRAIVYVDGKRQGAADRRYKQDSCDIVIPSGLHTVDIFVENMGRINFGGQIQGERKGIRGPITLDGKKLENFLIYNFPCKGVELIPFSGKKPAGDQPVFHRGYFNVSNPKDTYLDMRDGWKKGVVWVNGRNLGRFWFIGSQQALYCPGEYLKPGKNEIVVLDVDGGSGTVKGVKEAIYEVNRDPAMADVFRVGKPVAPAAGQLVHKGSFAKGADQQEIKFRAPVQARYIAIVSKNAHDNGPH
In words: photometric 4-nitrophenol release. The note with it: 5 mM substrate; 50 mM combined buffer pH 7.5, 37 °C. The format is biochemical.

The next data set addresses T2, Amuc_1686 (Akkermansia muciniphila, UniProt B2UM60).
T2 construct: GH35 beta-galactosidase with C-terminal truncated discoidin (F5/8 type C) domain; signal peptide removed (predicted cleavage between 17 and 18), N-terminal Strep-tag kept (pASK-IBA5), E. coli BL21(DE3); 87 kDa tagged (86 kDa encoded); monomer; primers start at codons AAPMPF and end in FKPAK-stop
T2 sequence (B2UM60 18-780): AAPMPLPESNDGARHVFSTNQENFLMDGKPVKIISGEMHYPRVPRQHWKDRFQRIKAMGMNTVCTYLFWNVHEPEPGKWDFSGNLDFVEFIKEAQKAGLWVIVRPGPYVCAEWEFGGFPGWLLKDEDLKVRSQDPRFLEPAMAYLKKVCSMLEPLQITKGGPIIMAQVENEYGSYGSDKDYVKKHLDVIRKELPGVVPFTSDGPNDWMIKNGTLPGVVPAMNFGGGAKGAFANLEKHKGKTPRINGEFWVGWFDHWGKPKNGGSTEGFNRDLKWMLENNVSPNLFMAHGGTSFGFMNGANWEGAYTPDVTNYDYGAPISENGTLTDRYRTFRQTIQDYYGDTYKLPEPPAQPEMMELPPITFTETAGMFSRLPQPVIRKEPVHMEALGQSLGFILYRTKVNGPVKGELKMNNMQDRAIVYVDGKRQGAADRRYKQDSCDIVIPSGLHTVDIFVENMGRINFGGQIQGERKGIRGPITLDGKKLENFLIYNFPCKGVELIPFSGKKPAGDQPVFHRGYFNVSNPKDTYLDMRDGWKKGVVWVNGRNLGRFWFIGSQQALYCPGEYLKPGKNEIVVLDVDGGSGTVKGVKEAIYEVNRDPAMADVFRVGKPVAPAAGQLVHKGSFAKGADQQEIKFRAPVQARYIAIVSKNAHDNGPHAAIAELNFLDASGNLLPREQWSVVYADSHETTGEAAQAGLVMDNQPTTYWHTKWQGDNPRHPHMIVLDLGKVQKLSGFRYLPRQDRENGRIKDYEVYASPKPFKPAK
In words: photometric 4-nitrophenol release. The format is biochemical. The note with it: 5 mM 4-nitrophenyl beta-D-galactopyranoside; 50 mM combined buffer pH 7.5, 37 °C; lipid added in methanol; non-competitive; acyl chains not given.

Substrate in the data set “purified protein”: O=[N+]([O-])c1ccc(O[C@@H]2O[C@H](CO)[C@H](O)[C@H](O)[C@H]2O)cc1
In words: purified protein. The note with it: 50 mM combined buffer pH 7.5, 65 °C.

For the molecule `O=[N+]([O-])c1ccc(O[C@@H]2O[C@H](CO)[C@H](O)[C@H](O)[C@H]2O)cc1` [para‐nitrophenyl‐β‐D‐galactopyranoside], on Amuc_1686_short, the “photometric 4-nitrophenol release” value is on record as “the shortened variant exhibited a slightly decreased enzymatic activity”.

As for lysophosphatidic acid [LPA], the half-maximal inhibitory concentration (IC50) on Amuc_1686 came to 13.6 ± 10.6 µM.

Take phosphatidic acid [PA]: the IC50 at Amuc_1686 is 4.3 ± 0.2 µM.

Consider phosphatidylglycerol [PG], for which, on Amuc_1686, the IC50 came out at 1 ± 0.1 µM.

In the case of phosphatidylserine [PS], the IC50 at Amuc_1686 turned out to be 29.3 ± 1.5 µM.

B1: Amuc_1686 (Akkermansia muciniphila ATCC BAA-835) (protein)
chain: AAPMPLPESNDGARHVFSTNQENFLMDGKPVKIISGEMHYPRVPRQHWKDRFQRIKAMGMNTVCTYLFWNVHEPEPGKWDFSGNLDFVEFIKEAQKAGLWVIVRPGPYVCAEWEFGGFPGWLLKDEDLKVRSQDPRFLEPAMAYLKKVCSMLEPLQITKGGPIIMAQVENEYGSYGSDKDYVKKHLDVIRKELPGVVPFTSDGPNDWMIKNGTLPGVVPAMNFGGGAKGAFANLEKHKGKTPRINGEFWVGWFDHWGKPKNGGSTEGFNRDLKWMLENNVSPNLFMAHGGTSFGFMNGANWEGAYTPDVTNYDYGAPISENGTLTDRYRTFRQTIQDYYGDTYKLPEPPAQPEMMELPPITFTETAGMFSRLPQPVIRKEPVHMEALGQSLGFILYRTKVNGPVKGELKMNNMQDRAIVYVDGKRQGAADRRYKQDSCDIVIPSGLHTVDIFVENMGRINFGGQIQGERKGIRGPITLDGKKLENFLIYNFPCKGVELIPFSGKKPAGDQPVFHRGYFNVSNPKDTYLDMRDGWKKGVVWVNGRNLGRFWFIGSQQALYCPGEYLKPGKNEIVVLDVDGGSGTVKGVKEAIYEVNRDPAMADVFRVGKPVAPAAGQLVHKGSFAKGADQQEIKFRAPVQARYIAIVSKNAHDNGPHAAIAELNFLDASGNLLPREQWSVVYADSHETTGEAAQAGLVMDNQPTTYWHTKWQGDNPRHPHMIVLDLGKVQKLSGFRYLPRQDRENGRIKDYEVYASPKPFKPAK
As for B1, in the data set “purified protein”, the Km was determined as 500 ± 300 µM and the kcat was found to be 530.3 ± 87.1 s⁻¹.
